For the experiment, the target named is T1, human CB2R (Homo sapiens, UniProt P34972).
T1 construct: host or cells: CHO cells
T1 sequence (P34972 whole entry): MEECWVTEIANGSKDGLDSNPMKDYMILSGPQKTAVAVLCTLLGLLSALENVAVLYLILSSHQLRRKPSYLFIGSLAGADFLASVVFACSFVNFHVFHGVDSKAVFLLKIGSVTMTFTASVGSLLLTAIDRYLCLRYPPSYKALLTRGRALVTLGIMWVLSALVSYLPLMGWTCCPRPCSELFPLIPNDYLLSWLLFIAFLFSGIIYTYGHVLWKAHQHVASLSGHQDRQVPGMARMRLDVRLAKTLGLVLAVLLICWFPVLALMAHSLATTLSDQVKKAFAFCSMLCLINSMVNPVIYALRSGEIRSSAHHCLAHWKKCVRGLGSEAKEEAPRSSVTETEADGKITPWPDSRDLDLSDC
Kind of experiment: CB2R mediated modulation of cAMP synthesis. In kind it is cell-based. The settings on record: found through the use of the above described assays (binding and cAMP); CHO cells expressing human CB2R, forskolin-stimulated cAMP. The procedure, abridged:
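EC50 values reflect inhibition of cAMP made in response to 10 uM forskolin (with 1 mM IBMX, 0.25% BSA) over 30 min at 37 °C in human CB2R-expressing CHO cells. The window runs from forskolin alone to 1 uM CP55940; curves fitted with a four-parameter logistic model.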
For the molecule `CC(C)(C(=O)Nc1nc(-c2ccccc2)co1)S(=O)(=O)c1ccc(Cl)cc1` [2-(4-Chloro-benzenesulfonyl)-2-methyl-N-(4-phenyl-oxazol-2-yl)-propionamide], the agonistic activity entry is recorded as “agonistic activity”. Next, `Cc1ccc(NC(=O)C(C)(C)S(=O)(=O)c2ccc(C(F)(F)F)nc2)nc1` [2-methyl-N-(5-methylpyridin-2-yl)-2-{[6-(trifluoromethyl)pyridin-3-yl]sulfonyl}propanamide]: “agonistic activity”; `Cn1nc(C(C)(C)C)cc1NC(=O)C(C)(C)S(=O)(=O)c1ccc(C(F)(F)F)nc1` [N-(5-tert-Butyl-2-methyl-2H-pyrazol-3-yl)-2-methyl-2-(6-trifluoromethyl-pyridine-3-sulfonyl)-propionamide]: “agonistic activity”; `CC(C)(C(=O)Nc1cccc(C(F)(F)F)n1)S(=O)(=O)c1cc(F)ccc1F` [2-(2,5-Difluoro-benzenesulfonyl)-2-methyl-N-(6-trifluoromethyl-pyridin-2-yl)-propionamide]: “agonistic activity”. As for `CC(C)(C)c1csc(NC(=O)C(C)(C)S(=O)(=O)c2ccccc2)n1` [2-Benzenesulfonyl-N-(4-tert-butyl-thiazol-2-yl)-2-methyl-propionamide], the entry is “agonistic activity”. As for `Cc1ccc(S(=O)(=O)C(C)(C)C(=O)Nc2cc(C(C)(C)C)on2)c(F)c1` [N-(5-tert-Butyl-isoxazol-3-yl)-2-(2-fluoro-4-methyl-benzenesulfonyl)-2-methyl-propionamide], the agonistic activity entry is recorded as “agonistic activity”. Next, `CC(C)(C(=O)Nc1cnc2ccccc2c1)S(=O)(=O)c1ccc(Cl)cc1F` [2-[(4-chloro-2-fluorophenyl)sulfonyl]-2-methyl-N-quinolin-3-ylpropanamide]: “agonistic activity”; `O=C(Nc1cc(C(F)(F)F)ccn1)C1(S(=O)(=O)c2ccc(Cl)cc2)CC1` [1-(4-Chloro-benzenesulfonyl)-cyclopropanecarboxylic acid (4-trifluoromethyl-pyridin-2-yl)-amide]: “agonistic activity”. As for `Cc1cnc(NC(=O)C(C)(C)S(=O)(=O)c2ccc(C(F)(F)F)cc2)s1` [2-Methyl-N-(5-methyl-thiazol-2-yl)-2-(4-trifluoromethyl-benzenesulfonyl)-propionamide], the entry is “agonistic activity”.

Take `CC(C)c1cc(NC(=O)C(C)(C)S(=O)(=O)c2ccc(Cl)cc2)on1` [2-(4-Chloro-benzenesulfonyl)-N-(3-isopropyl-isoxazol-5-yl)-2-methyl-propionamide]: the agonistic activity entry is “agonistic activity”.

On to `Cc1ccc(S(=O)(=O)C(C)(C)C(=O)Nc2cc(C(C)(C)C)nn2C)cc1` [N-(5-tert-Butyl-2-methyl-2H-pyrazol-3-yl)-2-methyl-2-(toluene-4-sulfonyl)-propionamide], for which the agonistic activity result is recorded as “agonistic activity”. As for `CC(C)(C(=O)Nc1cccc(C(F)(F)F)c1)S(=O)(=O)c1ccc(Cl)cc1` [2-(4-Chloro-benzenesulfonyl)-2-methyl-N-(3-trifluoromethyl-phenyl)-propionamide], the entry is “agonistic activity”; as for `CC(C)(C(=O)Nc1nc(-c2ccccn2)cs1)S(=O)(=O)c1ccc(F)cc1F` [2-(2,4-Difluoro-benzenesulfonyl)-2-methyl-N-(4-pyridin-2-yl-thiazol-2-yl)-propionamide], “agonistic activity”. As for `CC(C)(C)Cc1cc(NC(=O)C(C)(C)S(=O)(=O)c2ccc(S(C)(=O)=O)cc2)on1` [N-[3-(2,2-dimethylpropyl)isoxazol-5-yl]-2-methyl-2-{[4-(methylsulfonyl)phenyl]sulfonyl}propanamide], the entry is “agonistic activity”. Next, `Cc1ccnc(NC(=O)C(C)(C)S(=O)(=O)c2ccc(Cl)cc2)n1` [2-[(4-chlorophenyl)sulfonyl]-2-methyl-N-(4-methylpyrimidin-2-yl)propanamide]: “agonistic activity”.

Regarding `CC(C)(C(=O)Nc1n[nH]c(-c2ccccc2)n1)S(=O)(=O)c1ccc(Cl)cc1` [2-(4-Chloro-benzenesulfonyl)-2-methyl-N-(5-phenyl-2H-[1,2,4]triazol-3-yl)-propionamide], the agonistic activity entry was “agonistic activity”. As for `CC(C)(C(=O)Nc1nc(-c2cccnc2)cs1)S(=O)(=O)c1ccc(F)cc1F` [2-(2,4-Difluoro-benzenesulfonyl)-2-methyl-N-(4-pyridin-3-yl-thiazol-2-yl)-propionamide], the agonistic activity entry is given as “agonistic activity”. For the molecule `CC(C)(C)Cc1cc(NC(=O)C(C)(C)S(=O)(=O)c2ccc(Cl)cc2)on1`, the agonistic activity result is listed as “agonistic activity”. Next, `CC(C)(C)c1csc(NC(=O)C(C)(C)S(=O)(=O)c2ccc(N3CCC3)nc2)n1` [2-(6-Azetidin-1-yl-pyridine-3-sulfonyl)-N-(4-tert-butyl-thiazol-2-yl)-2-methyl-propionamide]: “agonistic activity”.

With `CC(C)(C(=O)Nc1nc2ccccc2s1)S(=O)(=O)c1ccc(Cl)cc1` [N-Benzothiazol-2-yl-2-(4-chloro-benzenesulfonyl)-2-methyl-propionamide], the agonistic activity entry is given as “agonistic activity”.

`CC(C)(C(=O)Nc1cc(C(F)(F)F)ccn1)S(=O)(=O)c1ccc(Cl)cc1F` [2-(4-Chloro-2-fluoro-benzenesulfonyl)-2-methyl-N-(4-trifluoromethyl-pyridin-2-yl)-propionamide]: the agonistic activity result is listed as “agonistic activity”.

Turning to `Cn1nc(C2CCCC2)cc1NC(=O)C(C)(C)S(=O)(=O)c1ccc(Cl)cc1` [2-(4-Chloro-benzenesulfonyl)-N-(5-cyclopentyl-2-methyl-2H-pyrazol-3-yl)-2-methyl-propionamide], the agonistic activity result is given as “agonistic activity”. Next, `CC(C)(C(=O)Nc1ncc(-c2ccccc2)s1)S(=O)(=O)c1ccc(Cl)cc1` [2-(4-Chloro-benzenesulfonyl)-2-methyl-N-(5-phenyl-thiazol-2-yl)-propionamide]: “agonistic activity”; `Cc1cc(NC(=O)C(C)(C)S(=O)(=O)c2ccc(Cl)cc2)n(C)n1` [2-(4-Chloro-benzenesulfonyl)-N-(2,5-dimethyl-2H-pyrazol-3-yl)-2-methyl-propionamide]: “agonistic activity”; `CC(C)(C(=O)Nc1cc2ccccc2cn1)S(=O)(=O)c1ccc(Cl)cc1` [2-(4-Chloro-benzenesulfonyl)-N-isoquinolin-3-yl-2-methyl-propionamide]: “agonistic activity”. Next, `Cc1nc(NC(=O)C2(S(=O)(=O)c3ccc(C(F)(F)F)cc3)CCC2)sc1C(C)(C)C` [1-(4-Trifluoromethyl-benzenesulfonyl)-cyclobutanecarboxylic acid (5-tert-butyl-4-methyl-thiazol-2-yl)-amide]: “agonistic activity”; `Cc1ccc(S(=O)(=O)C(C)(C)C(=O)Nc2cc(C(C)(C)C)on2)cc1F` [N-(5-tert-Butyl-isoxazol-3-yl)-2-(3-fluoro-4-methyl-benzenesulfonyl)-2-methyl-propionamide]: “agonistic activity”. For the molecule `CCc1c(C)noc1NC(=O)C(C)(C)S(=O)(=O)c1ccc(Cl)cc1` [2-(4-Chloro-benzenesulfonyl)-N-(4-ethyl-3-methyl-isoxazol-5-yl)-2-methyl-propionamide], the agonistic activity entry is “agonistic activity”. As to `O=C(Nc1ccc(C(F)(F)F)cn1)C1(S(=O)(=O)c2ccc(C(F)(F)F)cc2)CCOCC1` [4-(4-Trifluoromethyl-benzenesulfonyl)-tetrahydro-pyran-4-carboxylic acid (5-trifluoromethyl-pyridin-2-yl)-amide], the agonistic activity entry was “agonistic activity”. Next, `CC(C)(C(=O)Nc1ccc(C(F)(F)F)cc1F)S(=O)(=O)c1ccc(Cl)cc1` [2-[(4-chlorophenyl)sulfonyl]-N-[2-fluoro-4-(trifluoromethyl)phenyl]-2-methylpropanamide]: “agonistic activity”; `CC(C)(C(=O)Nc1cccc(C(F)(F)F)n1)S(=O)(=O)c1ccc(N2CCC2)nc1` [2-(6-Azetidin-1-yl-pyridine-3-sulfonyl)-2-methyl-N-(6-trifluoromethyl-pyridin-2-yl)-propionamide]: “agonistic activity”; `CC(C)(C)c1cc(NC(=O)C(C)(C)S(=O)(=O)c2cccc(C(F)(F)F)c2)no1` [N-(5-tert-Butyl-isoxazol-3-yl)-2-methyl-2-(3-trifluoromethyl-benzenesulfonyl)-propionamide]: “agonistic activity”. Next, `CC(C)(C)c1cc(NC(=O)C(C)(C)S(=O)(=O)c2ccc(F)cc2)no1` [N-(5-tert-Butyl-isoxazol-3-yl)-2-(4-fluoro-benzenesulfonyl)-2-methyl-propionamide]: “agonistic activity”.

Consider `CC(C)(C)c1csc(NC(=O)C(C)(C)S(=O)(=O)c2ccc(Cl)c(Cl)c2)n1` [N-(4-tert-Butyl-thiazol-2-yl)-2-(3,4-dichloro-benzenesulfonyl)-2-methyl-propionamide], for which the agonistic activity entry is “agonistic activity”.

The values are drawn from patent US8299111B2, “Compounds which modulate the CB2 receptor” (Boehringer Ingelheim International GmbH, priority 2006, dated 2012).
